In brackets after ≈: the same amount, converted by molar mass. Bounds are passed on as bounds.

The test system of assay [1] is Mycobacterium tuberculosis. In words: Antibacterial activity against Mycobacterium tuberculosis assessed as reduction in resistance generation frequency. In kind it is functional.
In assay [2] the test system is Mycobacterium tuberculosis. Put plainly: Antibacterial activity against Mycobacterium tuberculosis Erdman (TMCC 107) assessed as reduction in resistance generation frequency. The class given is functional.
Assay [3] has as its system Mycobacterium tuberculosis. Put plainly: Antibacterial activity against Mycobacterium tuberculosis Erdman (TMCC 107) in Mtb infection C3HeB/FeJ mouse model assessed as reduction in resistance generation frequency administered for 8 weeks relative to control. The class given is functional. Also noted: scale not given: the % may be the effect or the level left.
In assay [4] the test system is Mycobacterium tuberculosis. In words: Antibacterial activity against extensively drug-resistant Mycobacterium tuberculosis clinical isolate assessed as inhibition of bacterial growth in presence of SMARt-420. In kind it is functional.
Assay [5] deals with Mycobacterium tuberculosis. Put plainly: Antibacterial activity against multidrug-resistant Mycobacterium tuberculosis clinical isolate assessed as inhibition of bacterial growth in presence of SMARt-420. The class given is functional.
In assay [6] the test system is Mycobacterium tuberculosis. Put plainly: Antibacterial activity against Ethionamide-resistant Mycobacterium tuberculosis Beijing strain in acute Mtb infection BALB/c mouse model assessed as reduction in log10 CFU in lungs at 50 mg/kg, po for 3 weeks in presence of Ethionamide. In kind it is functional.
Assay [7] relates to Mycobacterium tuberculosis. Put plainly: microbe, parasite or virus in culture.
Assay [8] relates to Mycobacterium tuberculosis. In words: microbe, parasite or virus in culture. This is another data set of the same source.
Assay [9] concerns Mycobacterium tuberculosis. Put plainly: Antibacterial activity against EMB-resistant Mycobacterium tuberculosis assessed as inhibition of bacterial growth. In kind it is functional.

Consider `Cc1ccn(C(C)c2nnc(Nc3ccn(Cc4c(F)cccc4Cl)n3)s2)n1` (stereo not drawn), for which the Activity in [1] is given as 4 10^-8No_unit.

Regarding `CCNC(=N)NC(=O)Nc1c(CC)cccc1CC`, the Activity in [1] is >1.5 log10CFU.

In the case of `Cc1n[nH]c2ccc(NS(=O)(=O)CCCCF)cc12`, the Activity in assay [1] was 6 10^-8No_unit.

Consider `CCS(=O)(=O)N1N=Cc2ccc(Oc3ccc(C(F)(F)F)cc3/C=N/O)cc2B1O`, for which the Activity in assay [2] is given as 4 10^-7No_unit; in [3] it was 0.04%. For the same molecule, the MIC in assay [4] and in assay [5] was 0.15 µM each time.

As for `O=C(CCC(F)(F)F)N1CCC2(CC1)CC(c1ccccc1)=NO2`, the Activity in [6] was determined as 4 log10CFU.

As for `CCc1cc(C(N)=S)ccn1` [ETHIONAMIDE], the MIC in [7] and in assay [8] was 48 µM (≈ 7.98 µg/mL) each time.

As to `NNC(=O)c1ccncc1` [ISONIAZID], the Activity in assay [1] is on record as 4 10^-5No_unit; in [3] it was 29%.

As to `CC(C)=CCC/C(C)=C/CNCCNC1C2CC3CC(C2)CC1C3` (stereo not drawn) [SQ109], in [9], the MIC was determined as 2.4 µM (≈ 0.793 µg/mL).
